Source: EPA's ToxValDB 9.5 (doi:10.2903/j.efsa.2006.56r)
“And” between values parts separate entries of the source, which are not always exact repeats. Identical values can stand only once.

Columns and labels:
Apis mellifera = conditions: acute; for LD50: mortality
Colinus virginianus = conditions: for LC50: diet
Oryctolagus sp. = conditions: developmental; development
Plant = conditions: acute
Pontoscolex corethrurus = conditions: for LC50: acute, mortality
Rattus norvegicus = conditions: for LD50: acute, mortality
Anas platyrhynchos = conditions: acute; oral; unspecified; mortality
Anatidae = conditions: reproductive
Tagia sp. = conditions: chronic/long-term
[1] = chronic, duration: 2 years, oral, diet, M, organ weight

SMILES | LEC (Apis mellifera; dermal) | LD50 (Apis mellifera; oral, unspecified) | LC50 (Colinus virginianus; acute, oral, mortality) | LD50 (Colinus virginianus; acute, oral, mortality) | NOAEL (Oryctolagus sp.) | LEC (Plant) | LC50 (Pontoscolex corethrurus) | NOEC (Pontoscolex corethrurus; chronic/long-term) | LD50 (Rattus norvegicus; oral) | NOAEL (Rattus norvegicus; chronic) | NOAEL (Rattus norvegicus; [1]) | LEC (acute) | LEC (chronic) | LD50 (Anas platyrhynchos) | NOEC (Anatidae) | LD50 (Apis mellifera; dermal) | NOEC (Colinus virginianus; reproduction developmental) | NOAEL (Rattus norvegicus; reproduction developmental, reproduction) | NOAEL (Rattus norvegicus; subchronic, duration: 13 weeks, oral, diet, M/F, histopathology: nonneoplastic) | NOEC (Tagia sp.)
CCCCOCCOC(=O)COc1nc(Cl)c(Cl)cc1Cl [Triclopyr butotyl] | > 100 µg/piece | > 100 µg/piece | 1890 mg/kg-day | 735 mg/kg | 30 mg/kg-day | 2200 µg/L | > 521 mg/kg | 9.6 mg/kg | 803 mg/kg | 5 mg/kg-day | 3 mg/kg-day | – | – | – | – | – | – | – | – | –
O=C(O)COc1nc(Cl)c(Cl)cc1Cl [Triclopyr] | – | > 100 µg/piece | 1030 mg/kg-day | – | 30 mg/kg-day | – | > 983 mg/kg | – | 630 mg/kg | – | 3 mg/kg-day | 117 mg/L and > 131 mg/L and 75.8 mg/L | 46.3 mg/L and 48.5 mg/L | 1700 mg/kg | 30 mg/kg-day | > 100 µg/piece | 500 mg/kg-day | 25 mg/kg-day | 5 mg/kg-day | 9.6 mg/kg
